Measurements published in patent publication EP0503411A1, “Substituted N-phenylpiperidines and medicaments thereof” (BASF Aktiengesellschaft, priority 1991, dated 1992).

Tests used:
Sigma-Rezeptor = assay: Sigma receptor binding test ([³H]-Ditolylguanidin binding, rat cerebrum membranes); design: species or system Ratte; details: [³H]-Ditolylguanidin-Bindungsstelle, 37°C
From the text: Der verwendete Bindungsassay (Bindung von [³H]-Ditolylguanidin) erfaßt sogenannte "Haloperidolsensitive-Sigma-Rezeptoren", die eine hohe Affinität zum Haloperidol, aber nur geringe Affinität zum Phencyclidin und zu Opoiden aufweisen.
Life Sciences 47, 1073 (1990)], eingesetzt.
Rattengroßhirne wurden in dem 10fachen Volumen Homogenisierungspuffer (50 mmol Tris(hydroxymethyl)-amino-methan, 0,1 mmol Ethylendiamintetraacetat, pH=7,7) mit einem Polytron-Homogenisiator homogenisiert (20 sec.). Nach 15 Minuten Zentrifugation bei 40000 Umdrehungen/min wurde das erhaltene Pellet resuspendiert und die Suspension erneut 15 Minuten lang mit 40000 Umdrehungen/min zentrifugiert. Das hierbei erhaltene Pellet wurde im 5fachen Volumen Homogenisierungspuffer resuspendiert und bis zur weiteren Verwendung in flüssigem Stickstoff eingefroren.
Testsubstanz und Membranen (0,3 mg Protein) wurden in 0,3 ml Inkubationspuffer (5 mmol Tris(hydroxymethyl)-amino-methan, 0,1 mmol Ethylendiamintetraacetat, pH=7,7) 45 Minuten bei 37°C inkubiert. Nach Zugabe von 100 000 dpm [³H]-Ditolylguanidin (54,5 Ci/mmol) wurde noch 1 Stunde inkubiert. Die Membranen wurden über GF/B-Filter (dunn-Labortechnik, Asbach) filtriert und mit einem 37°C warmen Waschpuffer (5 mmol Tris(hydroxymethyl)-amino-methan, 0,1 mmol Ethylendiamintetraacetat, pH=7,4) gewaschen. Die verbleibende Radioaktivität auf den Filtern wurde durch Flüssig-Scintillationszählung gemessen. Die Bindungsdaten wurden durch iterative Anpassungsprogramme analysiert.

Meerschweinchenherzen = assay: QT-prolonging effect, ECG measurement on isolated Langendorff-perfused guinea pig heart; design: species or system Duncin-Hartley-Meerschweinchen; details: concentration in perfusate giving 20 % increase of initial QT duration, cumulative addition every 15 min, from linear regression
From the text: Die Wirkung der Phenylpiperidine I als Repolarisationshemmstoffe kann man durch EKG-Messungen belegen. Dabei unterteilt man die Herzperiode zeitlich in Systole (Zusammenziehen des Herzens), auch QT-Dauer genannt, und Diastole (Erschlaffung des Herzens mit Blutfüllung der Herzkammern). Repolarisationshemmstoffe bewirken nun eine Verlängerung der QT-Dauer ohne die Vorhofkammer-überleitungszeit (PQ-Dauer) und die Anspannungszeit (QRS-Dauer, Beginn der Systole bis zum öffnen der Semilunarklappen) wesentlich zu verändern (s. Pschyrembel, 254. Auflage, 1982).
Die Wirksamkeit der erfindungsgemäßen Verbindungen als Repolarisationshemmstoffe läßt sich im Tierversuch durch EKG-Messungen beispielsweise am Meerschweinchenherzen untersuchen (s. Basic Res. Cardiol. 82 (1987) 437; J. Pharmacol. Methods 21 (1989) 195). Zum Vergleich der Wirksamkeit mehrerer Substanzen dient dabei zum Beispiel die Dosis eines Wirkstoffes, bei der eine 20 %ige Zunahme des QT-Ausgangswertes eintritt (ED₂₀ %). Hierzu trägt man die logarithmierten Dosiswerte der jeweiligen Substanzen gegen die experimentell gefundenen relativen Änderungen der QT-Dauer auf, und ermittelt mittels linearer Regression die Funktionsgleichung einer Geraden, aus der man dann den ED20 %-Wert berechnen kann.
Mit dieser Methode wurden die ED20 %-Werte erfindungsgemäßer Verbindungen bestimmt (s. Tabelle 1). Als Vergleichssubstanz diente D-Sotalol [4'-(1-Hydroxy-2-(isopropylamino)-ethyl)methansulfonanilid].
Als Versuchstiere dienten männliche Duncin-Hartley-Meerschweinchen mit einem Körpergewicht von 300 bis 350 g. 30 min nach Applikation von 1250 I.E. Heparin/kg Körpergewicht in den Bauchraum wurden die Tiere durch Genickschlag getötet. Nach dem Durchtrennen der Kopfschlagadern zum Entbluten, wurde der Bruststamm geöffnet, das Herz herausgetrennt und an eine Perfusionsapparatur angeschlossen. Die Perfusion erfolgte nach Langendorff mit Sauerstoff angereicherter auf 37°C erwärmter Krebs-Henseleit-Lösung (NaCl 6896 mg/l; KCl 350 mg/l; MgSO₄ 285 mg/l; CaCl₂ 370 mg/l; KH₂PO₄ 161 mg/l; NaHCO₃ 2090 mg/l; Glukose 2000 mg/l). Dabei wurde das Perfusionsvolumen pro Zeiteinheit bei einem Gesamtvolumen von 100 ml auf 4 bis 6 ml/min und der Perfusionsdruck auf 60 bis 70 mm Hg eingestellt. Nach einer Äquilibrierzeit von 30 min wurde zirkulierend perfundiert.
Die EKG-Messungen wurden über zwei Silberelektroden, die auf der Herzoberfläche im oberen Bereich der linken Koronararterie und auf der Rückseite des Herzens auf Höhe der Ventilebene angebracht waren, aufgenommen. Gemessen wurden die PQ-, QT- und QRS-Zeiten sowie die Herzfrequenz.
Die Substanzgabe erfolgte kumulativ im Abstand von 15 min ins Perfusat.

Row | Molecule | Ki (Sigma-Rezeptor) [nM] | ED20 % (Meerschweinchenherzen)
1 | N#Cc1ccc(N2CCC(N3CCN(c4ccc([N+](=O)[O-])cc4)CC3)CC2)cc1 [Beispiel 3, N-[4-N(4-Cyanophenyl)piperidinoyl]-N'³(4-nitrophenyl)-piperazin] |  | 0,031 µmol/l
2 | CN(Cc1ccc(NS(C)(=O)=O)cc1)CC1CCN(c2ccc(NS(C)(=O)=O)cc2)CC1 [Beispiel 10, 1-(4-Methansulfonamidophenyl)-4-(N-(4-methansulfonamidobenzyl)-N-methylaminomethyl)-piperidin] |  | 0,96 µmol/l
3 | CN(CC(O)c1ccc(F)cc1)C1CCN(c2ccc([N+](=O)[O-])cc2)CC1 (stereo not shown) [Beispiel 12, 4-[N,N-[2-(4-Fluorphenyl)-2-hydroxyethyl]methylamino]-1-(4-nitrophenyl)-piperidin] |  | 0,21 µmol/l
4 | CC(C)NCC(O)c1ccc(NS(C)(=O)=O)cc1 [D-Sotalol, 4'-(1-Hydroxy-2-(isopropylamino)-ethyl)methansulfonanilid, reference compound] |  | 16,0 µmol/l

Now from value to molecule, other results behind:

Row | Ki (Sigma-Rezeptor) [nM] | Molecule | ED20 % (Meerschweinchenherzen)
5 | 2.8 | 1-(4-Nitrophenyl)-4-(4-phenyl-1-piperidinoyl)-piperidin [Beispiel 8] | 
6 | 11 | CN(Cc1ccccc1)CC1CCN(c2ccc([N+](=O)[O-])cc2)CC1 [Beispiel 2, 4-(N-Benzyl-N-methylaminomethyl)-1-(4-nitrophenyl)-piperidin] | 0,42 µmol/l
7 | 2 | CN(Cc1ccccc1)C1CCCN(c2ccc([N+](=O)[O-])cc2)C1 (stereo not shown) [Beispiel 11, 3-(N-Benzyl-N-methylamino)-1-(4-nitrophenyl)-piperidin] | 1,1 µmol/l
8 | 29.1 | Cc1ccccc1NC(=N)Nc1ccccc1C [DTG, 1,3-Di-o-tolyl-guanidin, reference compound] | 
